Measurements published in patent publication US9629861B2, “Compositions and methods for treating bacterial infections using ceftaroline” (Forest Laboratories Holdings Limited, priority 2009, dated 2017).
Read-outs that look alike come from different tables or passages of the source.

Legend:
CYP2C9 [1] = biological target: T1, CYP2C9 (Homo sapiens, UniProt P11712); experiment: CYP inhibition in human liver microsomes; assay type: in vitro ADME
T1 construct: In vitro studies in human liver microsomes; from tissue; host or cells: human liver microsomes

CYP3A4/5 = experiment: CYP induction in human hepatocytes; assay type: in vitro ADME
[2] = test system: complicated skin and skin structure infections (cSSSI); experiment: Phase 3 cSSSI Study 2; assay type: in vivo, human; conditions: versus vancomycin/aztreonam
Experimental: A total of 1396 adults with clinically documented complicated skin and skin structure infections (cSSSI) were enrolled in two randomized, multi-center, multinational, double-blind, studies comparing 600 mg ceftaroline fosamil administered intravenously over 1 hour every 12 hours to vancomycin plus aztreonam [1 g vancomycin administered intravenously over 1 hour followed by 1 g aztreonam administered intravenously over 1 hour every 12 hours]. Patients with cSSSI (deep/extensive cellulitis, a major abscess, a wound infection [surgical or traumatic], infected insect bites, burns or ulcers, lower extremity infection in patients with diabetes mellitus or peripheral vascular disease), were enrolled in the studies. Treatment duration was 5 to 14 days. A switch to oral therapy was not allowed. The Modified Intent-to-Treat (MITT) population included all patients who received any amount of study drug according to their randomized treatment group.
The primary efficacy endpoint was clinical response at the Test of Cure (TOC) visit in the co-primary CE and MITT populations (Table 2). […] In a subgroup analysis (CE population), the comparative clinical cure rates between the ceftaroline group and the vancomycin plus aztreonam group were not affected by age, gender, race, ethnicity, or weight.

CYP2B6 [3] = experiment: CYP induction in human hepatocytes; assay type: in vitro ADME
CYP2D6 = biological target: T2, CYP2D6 (Homo sapiens, UniProt P10635); experiment: CYP inhibition in human liver microsomes; assay type: in vitro ADME
T2 construct: In vitro studies in human liver microsomes; from tissue; host or cells: human liver microsomes

CYP2C19 [4] = conditions: human hepatocytes
CYP1A1 = biological target: T3, CYP1A1 (Homo sapiens, UniProt P04798); experiment: CYP inhibition in human liver microsomes; assay type: in vitro ADME
T3 construct: In vitro studies in human liver microsomes; from tissue; host or cells: human liver microsomes

[5] = test system: Community-Acquired Bacterial Pneumonia (CABP); experiment: Phase 3 CABP Study 2 (Example 4, no adjunctive macrolide); assay type: in vivo, human; conditions: for Treatment Difference in clinical cure rate at TOC: versus ceftriaxone, CABP Study 2
Experimental: (§1) In both treatment groups of CABP Study 1, two doses of oral clarithromycin (500 mg q12h), were administered as adjunctive therapy starting on Study Day 1. No adjunctive macrolide therapy was used in CABP Study 2. Patients with new or progressive pulmonary infiltrate(s) on chest radiography and clinical signs and symptoms consistent with CABP with the need for hospitalization and IV therapy were enrolled in the studies. Treatment duration was 5 to 7 days. A switch to oral therapy was not allowed. The Modified Intent-to-Treat Efficacy (MITTE) population included all patients who received any amount of study drug according to their randomized treatment group and were in PORT (Pneumonia Outcomes Research Team) Risk Class III or IV.
(§2) The primary efficacy endpoint was the clinical response at the Test of Cure (TOC) visit in the co-primary CE and MITTE populations (Table 4).
The secondary objectives of the study were to evaluate the following: clinical response at end-of-therapy (EOT); the microbiological favorable outcome rate at TOC; the overall (clinical and radiographic) success rate at TOC; the clinical and microbiological response by pathogen at TOC; clinical relapse at late follow-up (LFU); microbiological reinfection/recurrence at LFU; and safety.
The following criteria were used for evaluation: The primary efficacy outcome measures were the per-subject clinical cure rate at test-of-cure (TOC) in the CE and MITTE Populations. Subjects were considered clinically cured at TOC if they had total resolution of all signs and symptoms of the baseline infection, or improvement of the infection such that no further antimicrobial therapy was necessary.
(§3) Non-inferiority was concluded if the lower limit of the 95% CI was higher than −10%.

[6] = test system: Community-Acquired Bacterial Pneumonia (CABP); experiment: Phase 3 CABP Study 1 (Example 5, adjunctive clarithromycin); assay type: in vivo, human; conditions: versus ceftriaxone, CABP Study 1
Experimental: as §1, §2
The secondary objective of the study was to evaluate the following: the clinical response at end-of-therapy (EOT); the microbiological favorable outcome rate at TOC; the overall (clinical and radiographic) success rate at TOC; the clinical and microbiological response by pathogen at TOC; clinical relapse at late follow-up (LFU); microbiological reinfection/recurrence at LFU; and safety.
The primary efficacy outcome measures were the per-subject clinical cure rate at TOC in the CE and MITTE Populations. Subjects were considered clinically cured at TOC if they had total resolution of all signs and symptoms of the baseline infection, or improvement of the infection such that no further antimicrobial therapy was necessary.
as §3

CYP2C19 [7] = biological target: T4, CYP2C19 (Homo sapiens, UniProt P33261); experiment: CYP inhibition in human liver microsomes; assay type: in vitro ADME
T4 construct: In vitro studies in human liver microsomes; from tissue; host or cells: human liver microsomes

CYP3A4 = biological target: T5, CYP3A4 (Homo sapiens, UniProt P08684); experiment: CYP inhibition in human liver microsomes; assay type: in vitro ADME
T5 construct: In vitro studies in human liver microsomes; from tissue; host or cells: human liver microsomes

CYP2C9 [8] = experiment: CYP induction in human hepatocytes; assay type: in vitro ADME
CYP2C8 [9] = conditions: human hepatocytes
CYP1A2 [10] = biological target: CYP1A2 (Homo sapiens, UniProt P05177); assay type: in vitro ADME; conditions: human liver microsomes
CYP2C8 [11] = biological target: T6, CYP2C8 (Homo sapiens, UniProt P10632); experiment: CYP inhibition in human liver microsomes; assay type: in vitro ADME
T6 construct: In vitro studies in human liver microsomes; from tissue; host or cells: human liver microsomes

[12] = test system: Community-Acquired Bacterial Pneumonia (CABP); experiment: Two Phase 3 studies in CABP, integrated; assay type: in vivo, human; conditions: versus ceftriaxone, integrated CABP studies
Experimental: as §1
The primary efficacy endpoint was the clinical response at the Test of Cure (TOC) visit in the co-primary CE and MITTE populations (Table 4). In a subgroup analysis (CE population), the comparative clinical cure rates between the ceftaroline group and the ceftriaxone group were not affected by age, gender, race, ethnicity, or weight.

CYP2E1 = biological target: T7, CYP2E1 (Homo sapiens, UniProt P05181); experiment: CYP inhibition in human liver microsomes; assay type: in vitro ADME
T7 construct: In vitro studies in human liver microsomes; from tissue; host or cells: human liver microsomes

Aqueous solubility = assay type: physicochemical; conditions: with L-arginine, depending on the molarity of the solution
Excerpt: In further embodiments, the compositions may comprise L-arginine.

[13] = Pharmacokinetics of ceftaroline after IV infusion of ceftaroline fosamil in adults with normal renal function; parameters: species or system human; conditions: in vivo
Excerpt: The standard deviation is shown in brackets.

CYP2B6 [14] = biological target: T8, CYP2B6 (Homo sapiens, UniProt P20813); experiment: CYP inhibition in human liver microsomes; assay type: in vitro ADME
T8 construct: In vitro studies in human liver microsomes; from tissue; host or cells: human liver microsomes

CYP1A2 [15] = conditions: human hepatocytes
[16] = Safety, four pooled controlled comparative Phase 3 studies (two cSSSI, two CABP); assay type: in vivo, human; conditions: pooled Phase 3 studies
Experimental: Ceftaroline fosamil was evaluated in four controlled comparative Phase 3 clinical studies (two in cSSSI and two in CABP).

CYP2A6 = biological target: T9, CYP2A6 (Homo sapiens, UniProt P11509); experiment: CYP inhibition in human liver microsomes; assay type: in vitro ADME
T9 construct: In vitro studies in human liver microsomes; from tissue; host or cells: human liver microsomes

[17] = test system: Haemophilus parainfluenzae; conditions: ME patients with CABP
[18] = Example 5
Experimental: The 600-mg dose of ceftaroline fosamil infused over 60 minutes was split into two infusions in order to maintain the blind. For subjects with moderate renal impairment (30 mL/min<CrCl≦50 mL/min), as estimated by the Cockroft-Gault formula, unblinded pharmacy staff or unblinded study staff could adjust the dose of ceftaroline fosamil to two consecutive 200 mg infusions and readjust dose to two 300 mg infusions when renal function improved (CrCl>50 mL/min). The duration of treatment was between 5 to 7 days.
(§4) All subjects who received any amount of study drug were included in the safety analysis. Safety measures included monitoring for adverse events (AE) up to TOC and serious adverse events (SAE) through LFU; recording vital signs, physical examination, electrocardiogram (ECG), and clinical laboratory findings (clinical chemistry, hematology, and urinalysis), at prespecified times throughout the study.

[19] = Example 4
Experimental: The 600-mg dose of ceftaroline fosamil infused over 60 minutes was split into two infusions in order to maintain the blind. For subjects with moderate renal impairment (30 ml/min<CrCl≦50 ml/min), as estimated by the Cockroft-Gault formula, unblinded pharmacy staff or unblinded study staff could adjust the dose of ceftaroline fosamil to two consecutive 200 mg infusions and readjust dose to two 300 mg infusions when renal function improved (CrCl>50 mL/min). The duration of treatment was between 5 to 7 days.
as §4

[20] = Safety population, listed as ceftriaxone

T3 sequence (P04798 whole entry): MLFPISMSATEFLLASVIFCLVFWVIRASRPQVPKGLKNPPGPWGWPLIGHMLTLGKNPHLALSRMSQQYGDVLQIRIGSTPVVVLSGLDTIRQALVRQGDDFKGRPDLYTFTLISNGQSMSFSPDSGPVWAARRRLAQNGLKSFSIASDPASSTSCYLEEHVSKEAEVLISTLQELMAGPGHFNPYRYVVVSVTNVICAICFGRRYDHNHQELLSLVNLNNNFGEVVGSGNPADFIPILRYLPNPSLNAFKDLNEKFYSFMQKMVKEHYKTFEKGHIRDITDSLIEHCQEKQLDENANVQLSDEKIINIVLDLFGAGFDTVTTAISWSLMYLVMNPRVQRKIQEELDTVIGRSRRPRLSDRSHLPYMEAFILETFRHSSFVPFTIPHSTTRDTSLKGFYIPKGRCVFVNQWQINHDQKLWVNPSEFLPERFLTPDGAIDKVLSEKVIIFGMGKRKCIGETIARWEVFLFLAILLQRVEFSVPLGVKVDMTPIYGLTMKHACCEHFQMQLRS
T8 sequence (P20813 whole entry): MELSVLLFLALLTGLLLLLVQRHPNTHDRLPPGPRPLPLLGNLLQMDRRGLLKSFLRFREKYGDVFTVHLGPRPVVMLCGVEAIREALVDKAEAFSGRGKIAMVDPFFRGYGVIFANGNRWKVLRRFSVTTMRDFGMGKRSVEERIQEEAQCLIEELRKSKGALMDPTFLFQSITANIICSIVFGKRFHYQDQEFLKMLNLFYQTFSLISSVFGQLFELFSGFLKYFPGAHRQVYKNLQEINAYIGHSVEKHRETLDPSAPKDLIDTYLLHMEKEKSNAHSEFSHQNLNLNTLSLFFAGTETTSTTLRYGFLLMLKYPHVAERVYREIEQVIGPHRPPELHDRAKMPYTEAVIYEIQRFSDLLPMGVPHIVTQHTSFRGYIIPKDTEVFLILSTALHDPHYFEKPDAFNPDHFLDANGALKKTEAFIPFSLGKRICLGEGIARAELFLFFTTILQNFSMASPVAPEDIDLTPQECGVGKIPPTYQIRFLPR
CYP1A2 (Homo sapiens, UniProt P05177), sequence (P05177 whole entry): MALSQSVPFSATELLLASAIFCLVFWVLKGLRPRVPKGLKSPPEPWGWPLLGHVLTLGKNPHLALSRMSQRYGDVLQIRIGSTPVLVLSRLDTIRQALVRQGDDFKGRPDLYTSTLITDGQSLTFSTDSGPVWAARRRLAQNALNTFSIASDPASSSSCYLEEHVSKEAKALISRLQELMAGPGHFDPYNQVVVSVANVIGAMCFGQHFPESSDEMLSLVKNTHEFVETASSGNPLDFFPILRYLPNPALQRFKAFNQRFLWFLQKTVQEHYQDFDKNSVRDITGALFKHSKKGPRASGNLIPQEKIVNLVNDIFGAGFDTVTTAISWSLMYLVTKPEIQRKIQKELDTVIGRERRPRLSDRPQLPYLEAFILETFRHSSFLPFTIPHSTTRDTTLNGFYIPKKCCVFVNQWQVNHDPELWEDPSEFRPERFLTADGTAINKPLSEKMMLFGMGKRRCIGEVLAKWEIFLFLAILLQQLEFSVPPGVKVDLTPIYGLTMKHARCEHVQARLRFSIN
T9 sequence (P11509 whole entry): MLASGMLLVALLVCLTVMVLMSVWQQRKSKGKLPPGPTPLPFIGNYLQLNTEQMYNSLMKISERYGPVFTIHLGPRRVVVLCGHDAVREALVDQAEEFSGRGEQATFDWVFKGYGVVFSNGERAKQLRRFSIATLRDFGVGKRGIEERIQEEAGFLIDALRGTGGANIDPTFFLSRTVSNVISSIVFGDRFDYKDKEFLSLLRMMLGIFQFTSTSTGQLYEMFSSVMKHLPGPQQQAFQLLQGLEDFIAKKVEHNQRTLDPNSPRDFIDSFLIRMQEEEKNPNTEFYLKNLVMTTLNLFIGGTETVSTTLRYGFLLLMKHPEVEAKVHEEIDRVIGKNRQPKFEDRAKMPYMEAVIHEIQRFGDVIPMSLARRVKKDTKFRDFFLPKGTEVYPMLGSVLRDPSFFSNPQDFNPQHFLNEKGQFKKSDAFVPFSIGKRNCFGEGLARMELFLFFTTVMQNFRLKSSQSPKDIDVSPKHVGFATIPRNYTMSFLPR
T4 sequence (P33261 whole entry): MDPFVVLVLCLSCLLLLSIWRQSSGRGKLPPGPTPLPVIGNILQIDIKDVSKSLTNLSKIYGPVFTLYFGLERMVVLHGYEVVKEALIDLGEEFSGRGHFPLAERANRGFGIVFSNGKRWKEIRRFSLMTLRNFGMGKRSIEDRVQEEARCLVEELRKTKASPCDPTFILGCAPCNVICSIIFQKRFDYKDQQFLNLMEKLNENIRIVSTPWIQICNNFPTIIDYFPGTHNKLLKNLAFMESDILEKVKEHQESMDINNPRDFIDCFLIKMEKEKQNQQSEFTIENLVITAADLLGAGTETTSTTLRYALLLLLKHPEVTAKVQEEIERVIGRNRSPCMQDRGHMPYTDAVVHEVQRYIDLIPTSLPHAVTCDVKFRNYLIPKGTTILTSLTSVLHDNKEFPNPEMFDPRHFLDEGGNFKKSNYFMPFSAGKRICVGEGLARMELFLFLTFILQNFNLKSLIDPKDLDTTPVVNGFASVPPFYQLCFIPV
T6 sequence (P10632 whole entry): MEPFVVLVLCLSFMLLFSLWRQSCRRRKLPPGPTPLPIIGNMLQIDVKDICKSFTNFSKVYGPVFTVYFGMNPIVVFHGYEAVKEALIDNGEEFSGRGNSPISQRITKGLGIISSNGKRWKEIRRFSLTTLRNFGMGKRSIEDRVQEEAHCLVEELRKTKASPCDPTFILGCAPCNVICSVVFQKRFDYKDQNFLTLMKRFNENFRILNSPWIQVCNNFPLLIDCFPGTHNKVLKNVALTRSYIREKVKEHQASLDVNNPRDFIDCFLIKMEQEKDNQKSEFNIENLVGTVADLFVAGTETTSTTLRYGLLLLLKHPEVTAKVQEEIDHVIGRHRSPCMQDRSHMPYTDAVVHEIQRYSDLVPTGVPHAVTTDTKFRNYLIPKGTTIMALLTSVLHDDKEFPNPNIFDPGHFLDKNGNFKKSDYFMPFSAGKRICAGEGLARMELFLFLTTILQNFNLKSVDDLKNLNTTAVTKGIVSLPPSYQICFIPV
T2 sequence (P10635 whole entry): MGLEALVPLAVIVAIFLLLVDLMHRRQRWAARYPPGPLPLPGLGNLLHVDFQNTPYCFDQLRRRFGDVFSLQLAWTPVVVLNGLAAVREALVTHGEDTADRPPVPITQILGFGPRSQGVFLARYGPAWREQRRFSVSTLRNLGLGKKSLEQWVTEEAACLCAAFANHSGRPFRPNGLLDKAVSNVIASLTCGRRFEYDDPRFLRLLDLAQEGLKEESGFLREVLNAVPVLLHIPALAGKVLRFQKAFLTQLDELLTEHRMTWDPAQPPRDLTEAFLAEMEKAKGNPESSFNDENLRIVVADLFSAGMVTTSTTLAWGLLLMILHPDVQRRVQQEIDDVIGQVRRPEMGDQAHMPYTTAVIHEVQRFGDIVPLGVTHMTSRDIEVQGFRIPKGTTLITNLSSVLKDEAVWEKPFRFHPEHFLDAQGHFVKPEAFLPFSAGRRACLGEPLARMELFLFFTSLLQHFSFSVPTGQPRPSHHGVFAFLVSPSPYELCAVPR
T7 sequence (P05181 whole entry): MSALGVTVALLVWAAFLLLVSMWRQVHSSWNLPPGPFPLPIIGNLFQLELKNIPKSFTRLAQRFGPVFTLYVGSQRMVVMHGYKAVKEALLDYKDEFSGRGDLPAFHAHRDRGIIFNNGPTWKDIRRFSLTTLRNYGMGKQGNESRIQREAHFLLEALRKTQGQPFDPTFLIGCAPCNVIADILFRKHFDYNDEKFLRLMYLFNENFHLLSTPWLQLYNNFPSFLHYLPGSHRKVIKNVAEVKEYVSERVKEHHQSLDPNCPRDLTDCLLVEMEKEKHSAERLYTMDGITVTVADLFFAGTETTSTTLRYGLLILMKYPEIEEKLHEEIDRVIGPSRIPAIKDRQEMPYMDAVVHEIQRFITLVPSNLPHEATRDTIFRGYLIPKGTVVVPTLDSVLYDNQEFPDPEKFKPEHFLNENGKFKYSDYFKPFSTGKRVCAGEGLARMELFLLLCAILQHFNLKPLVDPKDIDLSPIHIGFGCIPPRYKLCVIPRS
T5 sequence (P08684 whole entry): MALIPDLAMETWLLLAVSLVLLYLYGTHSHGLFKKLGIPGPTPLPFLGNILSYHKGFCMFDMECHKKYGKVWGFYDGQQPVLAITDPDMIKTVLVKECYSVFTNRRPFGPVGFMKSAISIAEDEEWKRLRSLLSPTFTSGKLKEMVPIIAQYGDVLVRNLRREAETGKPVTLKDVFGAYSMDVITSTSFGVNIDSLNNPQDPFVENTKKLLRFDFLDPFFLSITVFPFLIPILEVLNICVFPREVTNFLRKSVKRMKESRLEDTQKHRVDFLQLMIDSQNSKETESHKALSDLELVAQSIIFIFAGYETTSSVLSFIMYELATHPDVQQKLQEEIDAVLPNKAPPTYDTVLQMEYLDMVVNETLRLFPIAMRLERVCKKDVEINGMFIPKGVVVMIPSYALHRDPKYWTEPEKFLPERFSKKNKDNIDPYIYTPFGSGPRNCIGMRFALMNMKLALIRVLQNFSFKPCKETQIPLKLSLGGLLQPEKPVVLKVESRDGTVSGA
T1 sequence (P11712 whole entry): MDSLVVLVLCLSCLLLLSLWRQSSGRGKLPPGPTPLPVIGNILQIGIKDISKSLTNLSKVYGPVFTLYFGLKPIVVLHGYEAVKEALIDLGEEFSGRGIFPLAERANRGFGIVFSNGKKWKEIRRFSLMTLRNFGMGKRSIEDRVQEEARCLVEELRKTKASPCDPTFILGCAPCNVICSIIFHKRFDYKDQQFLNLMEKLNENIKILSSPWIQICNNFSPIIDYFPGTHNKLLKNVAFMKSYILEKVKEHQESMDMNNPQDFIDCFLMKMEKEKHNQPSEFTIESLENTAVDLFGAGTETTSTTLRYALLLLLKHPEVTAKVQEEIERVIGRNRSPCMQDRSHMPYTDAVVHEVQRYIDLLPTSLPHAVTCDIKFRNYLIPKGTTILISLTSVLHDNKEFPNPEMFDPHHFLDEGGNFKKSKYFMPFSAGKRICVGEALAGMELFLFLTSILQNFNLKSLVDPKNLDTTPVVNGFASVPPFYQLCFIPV

## CCO/N=C(\C(=O)N[C@@H]1C(=O)N2C(C(=O)[O-])=C(Sc3nc(-c4cc[n+](C)cc4)cs3)CS[C@H]12)c1nsc(NP(=O)(O)O)n1 [Ceftaroline fosamil, (6R,7R)-7-{(2Z)-2-(ethoxyimino)-2-[5-(phosphonoamino)-1,2,4-thiadiazol-3-yl]acetamido}-3-{[4-(1-methylpyridin-1-ium-4-yl)-1,3-thiazol-2-yl]sulfanyl}-8-oxo-5-thia-1-azabicyclo[4.2.0]oct-2-ene-2-carboxylate]
CYP2C9 [1]
  inhibition of CYP2C9: neither ceftaroline fosamil nor ceftaroline inhibits
CYP3A4/5
  induction of CYP3A4/5: not inducers
[2]; CE
  Treatment Difference (2-sided 95% CI): 0.1 (−4.4., 4.5)
[2]; MITT
  Treatment Difference (2-sided 95% CI): −0.4 (−5.8, 5.0)
CYP2B6 [3]
  induction of CYP2B6: not inducers
CYP2D6
  inhibition of CYP2D6: neither ceftaroline fosamil nor ceftaroline inhibits
CYP2C19 [4]
  induction of CYP2C19: not inducers
CYP1A1
  inhibition of CYP1A1: neither ceftaroline fosamil nor ceftaroline inhibits
[5]; CE
  Treatment Difference in clinical cure rate at TOC: 4.9 (−2.5, 12.5) %
[5]; MITTE
  Treatment Difference in clinical cure rate at TOC: 5.9 (−1.0, 12.7) %
[6]; CE
  Treatment Difference in clinical cure rate at TOC: 8.4 (1.4, 15.4) %
[6]; MITTE
  Treatment Difference in clinical cure rate at TOC: 6.2 (−0.2, 12.6) %
CYP2C19 [7]
  inhibition of CYP2C19: neither ceftaroline fosamil nor ceftaroline inhibits
CYP3A4
  inhibition of CYP3A4: neither ceftaroline fosamil nor ceftaroline inhibits
CYP2C9 [8]
  induction of CYP2C9: not inducers
CYP2C8 [9]
  induction of CYP2C8: not inducers
CYP1A2 [10]
  inhibition of CYP1A2: neither ceftaroline fosamil nor ceftaroline inhibits
CYP2C8 [11]
  inhibition of CYP2C8: neither ceftaroline fosamil nor ceftaroline inhibits
[12]; CE
  Treatment Difference in clinical cure rate at TOC: 6.7 (1.6, 11.8) %
[12]; MITTE
  Treatment Difference in clinical cure rate at TOC: 6.0 (1.4, 10.7) %
CYP2E1
  inhibition of CYP2E1: neither ceftaroline fosamil nor ceftaroline inhibits
Aqueous solubility
  solubility: more than 200 mg per ml
[13]
  conversion of prodrug in plasma: rapidly converted into bioactive ceftaroline in plasma
CYP2B6 [14]
  inhibition of CYP2B6: neither ceftaroline fosamil nor ceftaroline inhibits
CYP1A2 [15]
  induction of CYP1A2: not inducers
[16]
  highest incidence of any adverse reaction: ≤ 5%
  hypersensitivity leading to discontinuation: 0.3%
CYP2A6
  inhibition of CYP2A6: neither ceftaroline fosamil nor ceftaroline inhibits
[17]
  Clinical Cure Rate by Infecting Pathogen: 16/16 (100%)

## CO/N=C(\C(=O)N[C@@H]1C(=O)N2C(C(=O)O)=C(CSc3nc(=O)c(=O)[nH]n3C)CS[C@H]12)c1csc(N)n1 [Ceftriaxone, reference compound]
[5]; MITTE population, Example 4
  Per-subject Clinical Cure Rate at the EOT Visit: 215 (78.8) %
[5]; mMITTE population, Example 4
  Favorable Microbiological Outcome at the TOC Visit: 72 (81.8) %
[18]
  TEAEs leading to premature discontinuation from study drug administration: 3.9%
  subjects with SAEs considered possibly or probably related to study drug: 5 subjects
[18]; MITTE population
  Early withdrawal from study, reason Adverse Event: 7 (2.3) %
[18]; Safety population
  Any AE (TEAE), subjects: 136 (44.2) %
  Constipation, subjects: 5 (1.6) %
  Diarrhea, subjects: 7 (2.3) %
  Headache, subjects: 4 (1.3) %
  Hypertension, subjects: 8 (2.6) %
  Hypokalemia, subjects: 10 (3.2) %
  Insomnia, subjects: 6 (1.9) %
  Nausea, subjects: 8 (2.6) %
  Phlebitis, subjects: 5 (1.6) %
[18]; [20]
  Any AE (TEAE), subjects: 44.2%
  Diarrhea, subjects: 2.3%
  Headache, subjects: 1.3%
[17]
  Clinical Cure Rate by Infecting Pathogen: 15/17 (88.2%)
[19]
  TEAEs leading to premature discontinuation from study drug administration: 1.3%
  any study-drug-related TEAEs, subjects: 13.7%
  study-drug-related TEAE: headache: 1.0%
[19]; MITTE population
  Early withdrawal from study, reason Adverse Event: 7 (2.6) %
[19]; Safety population
  Any AE (TEAE), subjects: 145 (47.2) %
  COPD, subjects: 5 (1.6) %
  Diarrhea, subjects: 9 (2.9) %
  Headache, subjects: 5 (1.6) %
  Hypertension, subjects: 8 (2.6) %
  Hypokalemia, subjects: 5 (1.6) %
  Insomnia, subjects: 8 (2.6) %
  Nausea, subjects: 6 (2.0) %
  Phlebitis, subjects: 8 (2.6) %
  Pleural effusion, subjects: 7 (2.3) %
  Pneumonia, subjects: 4 (1.3) %
[19]; [20]
  Any AE (TEAE), subjects: 47.2%

## CCO/N=C(\C(=O)N[C@H](C(=O)[O-])[C@@H]1NC(C(=O)[O-])=C(Sc2nc(-c3cc[n+](C)cc3)cs2)CS1)c1nsc(N)n1.[H+] [ceftaroline M-1]
CYP3A4/5
  induction of CYP3A4/5: not inducers
CYP2B6 [3]
  induction of CYP2B6: not inducers
CYP2C19 [4]
  induction of CYP2C19: not inducers
CYP2C9 [8]
  induction of CYP2C9: not inducers
CYP2C8 [9]
  induction of CYP2C8: not inducers
CYP1A2 [15]
  induction of CYP1A2: not inducers
